Structures can show the parent of a compound that is named as a salt.
What was measured:
[1] = tested on: ID188 patient-derived PDAC 2D line (pre-FOLFIRINOX); assay: normalised area under dose-response curve (viability relative to DMSO, 7 doses up to 10 µM) (fraction (AUC)); higher = less sensitive (more viability retained); conditions: 72 h; top dose: 10 µM
Procedure, shortened: (§1)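 2D PDAC cells grown out from patient-derived organoids were robotically seeded in 96-well plates at 1,500–3,000 cells/well and kept overnight at 37°C in 5% CO2. Compounds from a SelleckChem library were then applied for 72 h at seven concentrations, made as a 3-fold dilution series with 10 µM as the highest. CellTiter-Glo luminescence was measured 10 min later. Viability was normalised to control wells, and the GRmetrics R package was used to derive the area under the dose-response curve.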

[2] = tested on: ID211 patient-derived PDAC 2D line (post-FOLFIRINOX); assay: as above; conditions: 72 h; top dose: 10 µM
Procedure, shortened: as §1

Row | SMILES | normalised area under dose-response curve [1] | normalised area under dose-response curve [2]
1 | O=C1Nc2ccccc2/C1=C1/Nc2ccccc2C1=O [Indirubin] | 0.791 | 0.801
2 | NC(=O)c1ccc(I)c([N+](=O)[O-])c1 [Iniparib (BSI-201)] | 0.939 | 0.952
3 | CCc1c2c(nc3ccc(OC(=O)N4CCC(N5CCCCC5)CC4)cc13)-c1cc3c(c(=O)n1C2)COC(=O)[C@]3(O)CC [Irinotecan HCl Trihydrate] | 0.847 | 0.807
4 | CC(C)C[C@H](NC(=O)CNC(=O)c1cc(Cl)ccc1Cl)B1OC(=O)C(CC(=O)O)(CC(=O)O)O1 [Ixazomib Citrate (MLN9708)] | 0.425 | 0.48
5 | Clc1ccc(NN=C(c2ccccc2)c2ccccn2)nc1 [JIB-04] | 0.641 | 0.662
6 | Cc1cc(NC(=O)c2cccc(NC(=O)/C=C/CN(C)C)c2)ccc1Nc1nccc(-c2cccnc2)n1 [JNK-IN-8] | 0.874 | 0.842
7 | Cc1ccc(NCCCc2ccccc2)c(N)c1 [JSH-23] | 0.97 | 0.79
8 | O=C(Cc1ccc(-c2ccc(OCCN3CCOCC3)cc2)cn1)NCc1ccccc1 [KX2-391] | 0.624 | 0.508
9 | O=C(O)CCN1C(=O)/C(=C/c2ccc(-c3ccc([N+](=O)[O-])cc3)o2)SC1=S [KYA1797K] | 0.976 | 0.835
10 | CN[C@@H](C)C(=O)N[C@H](C(=O)N1CCC[C@H]1c1nc(C(=O)c2ccc(F)cc2)cs1)C1CCCCC1 [LCL161] | 0.585 | 0.922
11 | CN1CCN(c2ccc(-c3ccncc3-c3cc(F)c(O)c(F)c3)cc2)CC1 [LJH685] | 0.943 | 0.83
12 | Cc1cn(CCN2CCN(c3ccccc3-c3cc(C#N)cc(C(=O)NCCCN4CCCC4)c3)CC2)c2ccccc12 [LLY-507] | 0.859 | 0.842
13 | NCCCC[C@H](NC(=O)[C@@H](NC(=O)[C@H](Cc1c[nH]c2ccccc12)NC(=O)[C@H](CCCCN)NC(=O)[C@H](CCCCN)NC(=O)[C@H](Cc1c[nH]c2ccccc12)NC(=O)[C@H](Cc1c[nH]c2ccccc12)NC(=O)[C@H](CCCCN)NC(=O)[C@@H](N)CCCCN)C(c1ccccc1)c1ccccc1)C(N)=O [LTX-315] | 0.943 | 0.804
14 | Cc1ccc(F)c(NC(=O)Nc2ccc(-c3cccc4[nH]nc(N)c34)cc2)c1 [Linifanib (ABT-869)] | 0.889 | 0.814
15 | C[C@]1(O)C[C@@H](c2nc(-c3ccc4ccc(-c5ccccc5)nc4c3)c3c(N)nccn32)C1 [Linsitinib (OSI-906)] | 0.84 | 0.593
16 | O=C(O)c1nn(Cc2ccc(Cl)cc2Cl)c2ccccc12 [Lonidamine] | 0.934 | 0.87
17 | CCNC(=O)c1noc(-c2cc(C(C)C)c(O)cc2O)c1-c1ccc(CN2CCOCC2)cc1 [Luminespib (AUY-922, NVP-AUY922)] | 0.485 | 0.345
18 | O=c1cc(-c2ccc(O)c(O)c2)oc2cc(O)cc(O)c12 [Luteolin] | 0.82 | 0.754
19 | CN(CCNc1ccnc2cc(Cl)ccc12)CCNc1ccnc2cc(Cl)ccc12 [Lys05] | 0.921 | 0.796
20 | CCC1C/C(=C\c2cccnc2)C(=O)/C(=C/c2cccnc2)C1 (centres undefined) [MCB-613] | 0.764 | 0.778
21 | COCCOc1nc(-c2ccc(Cl)c(Cl)c2)n(-c2ccc(NC(=O)CCl)cc2)n1 [MI-2 (MALT1 inhibitor)] | 0.897 | 0.573
22 | Cc1c(CN2CCC(Nc3ncnc4sc(CC(F)(F)F)cc34)CC2)ccc2[nH]c(C#N)cc12 [MI-463] | 0.713 | 0.825
23 | Cc1c(CN2CCC(Nc3ncnc4sc(CC(F)(F)F)cc34)CC2)ccc2c1cc(C#N)n2Cc1cn[nH]c1 [MI-503] | 0.871 | 0.805
24 | O=C(O)CC[C@H]1CC[C@@](c2cc(F)ccc2F)(S(=O)(=O)c2ccc(Cl)cc2)CC1 [MK-0752] | 0.888 | 0.83
25 | CC(C)c1ccc2c(c1)c(SC(C)(C)C)c(CC(C)(C)C(=O)O)n2Cc1ccc(Cl)cc1 [MK-886 (L-663,536)] | 0.989 | 0.843
26 | NC1(c2ccc(-c3nc4ccn5c(=O)[nH]nc5c4cc3-c3ccccc3)cc2)CCC1 [MK-2206 2HCl] | 0.844 | 0.672

Row | SMILES | normalised area under dose-response curve [1] | normalised area under dose-response curve [2]
27 | CN(C(=O)CNC(=O)/C=C/c1cccc(Cl)c1)C1CCS(=O)(=O)CC1 [ML264] | 0.796 | 0.894
28 | Cc1cnc(-c2ccccc2C(C)C)nc1NCc1ccc(-n2ccnn2)cc1 [ML323] | 0.932 | 0.871
29 | CN(C)CCCNC(=O)c1ccc(-c2cc(O)c3ncccc3c2)cc1 [ML324] | 0.953 | 0.774
30 | O=C(CCNC(=O)c1ccc(OC(F)(F)F)cc1)N[C@@H]1CCCc2ccccc21 [ML390] | 0.983 | 0.788
31 | C[C@@H](NC(=O)c1ncnc(N)c1Cl)c1ncc(C(=O)Nc2cc(C(F)(F)F)c(Cl)cn2)s1 [MLN2480] | 0.905 | 0.818
32 | CC(C)Oc1ccc(-c2c[nH]cc2CN(C)CCN)cc1 [MS023] | 0.842 | 0.634
33 | Cc1cc(/N=N/c2ccc(S(=O)(=O)Nc3ccccn3)cc2)c(N)cc1O [MS436] | 0.977 | 0.957
34 | Cc1ccc(NC(=O)c2ccc(CN3CCN(C)CC3)cc2)cc1Nc1nc(-c2cccnc2)cs1 [Masitinib (AB1010)] | 0.959 | 0.83
35 | COc1cc(-n2c(=S)[nH]c3ccccc3c2=O)c(Cl)cc1Cl [Mdivi-1] | 0.885 | 0.957
36 | N[C@@H](Cc1ccc(N(CCCl)CCCl)cc1)C(=O)O [Melphalan] | 0.87 | 0.853
37 | CCS(=O)(=O)Nc1ccc(Oc2ccc(F)cc2F)c(-c2cn(C)c(=O)c3[nH]ccc23)c1 [Mivebresib(ABBV-075)] | 0.666 | 0.538
38 | CCCN(CCC)C(=O)C1=Cc2ccc(-c3ccc(C(=O)N4CCCC4)cc3)cc2N=C(N)C1 [Motolimod (VTX-2337)] | 0.969 | 0.822
39 | FC(F)(F)c1ccc(/C=C/c2nc(COc3ccc(CCCCn4ccnn4)cc3)co2)cc1 [Mubritinib (TAK 165)] | 0.735 | 0.784
40 | CC(C)CCn1c(CN2CCN(C(=O)C3CC3)CC2)nc2c1c(=O)n(C)c(=O)n2C [NCT-501] | 0.965 | 0.822
41 | Cc1cc(C)nc(NC(=S)N2CCN(Cc3ccc(C(F)(F)F)cc3)CC2)c1 [NCT-503] | 0.954 | 0.909
42 | Cc1cc(OCc2nnc(SC3CCCC3)n2-c2cccnc2)ccc1-c1ccc(S(C)(=O)=O)cc1 [NMS-873] | 0.8 | 0.406
43 | Oc1cc(CNC(=S)/C=C/c2cc(O)c(O)c(Br)c2)cc(O)c1O [NT157] | 0.943 | 0.886
44 | O=c1cc(N2CCOCC2)oc2c1ccc1ccccc12 [NU7026] | 0.998 | 0.846
45 | Cc1ccc(C(=O)Nc2cccc(C(F)(F)F)c2)cc1Nc1nc(-c2cccnc2)nc2c1cnn2C [NVP-BHG712] | 0.869 | 0.831
46 | COc1cc2c(cc1OC(C)C)[C@H](c1ccc(Cl)cc1)N(c1ccc(N(C)C[C@H]3CC[C@H](N4CCN(C)C(=O)C4)CC3)cc1)C(=O)C2 [NVP-CGM097] | 0.988 | 0.72
47 | CC(=O)c1cc2c(o1)C(=O)c1ccccc1C2=O [Napabucasin] | 0.65 | 0.708
48 | CCOc1cc2ncc(C#N)c(Nc3ccc(OCc4ccccn4)c(Cl)c3)c2cc1NC(=O)/C=C/CN(C)C [Neratinib (HKI-272)] | 0.893 | 0.638
49 | COC(=O)c1ccc2c(c1)NC(=O)/C2=C(\Nc1ccc(N(C)C(=O)CN2CCN(C)CC2)cc1)c1ccccc1 [Nintedanib (BIBF 1120)] | 0.915 | 0.86
50 | COC(=O)c1ccc2c(C(=Nc3ccc(N(C)C(=O)CN4CCN(C)CC4)cc3)c3ccccc3)c(O)[nH]c2c1 [Nintedanib Ethanesulfonate Salt] | 0.833 | 0.791
51 | COc1ccc(C2=N[C@@H](c3ccc(Cl)cc3)[C@@H](c3ccc(Cl)cc3)N2C(=O)N2CCNC(=O)C2)c(OC(C)C)c1 [Nutlin-3] | 0.97 | 0.82
52 | O=C(Nc1ccc(OC(F)(F)F)cc1)c1sccc1NCc1ccnc2ccccc12 [OSI-930] | 0.904 | 0.819

Source: the supplement of paper PMC8988213
